# Assay results taken from patent US11780821B2, “Inhibitors of fibroblast activation protein” (Praxis Biotech LLC, priority 2017, dated 2023).
# Experiments:
# endogenous FAP in plasma = assay: PD study in hamsters: plasma FAP activity and endogenous FGF21; format: in vivo, Golden Syrian hamsters; settings: hamster, 1 mg/kg IV or 10 mg/kg PO
# Method: To assess the effect of FAP inhibition by an exemplary compound over the cleavage of endogenously produced FGF21, in vivo PK/PD studies were conducted in male Golden Syrian hamsters following single intravenous and oral administration of an exemplary compound.
# Hamsters from Group 1 received an intravenous bolus via jugular vein of 1 mg/kg of compound 13 (an exemplary compound). On the other hand, hamsters from Group 2 received an intragastric bolus of 10 mg/kg of compound 13 (an exemplary compound) using feeding needles.
# Plasma samples were collected at 5, 10, 15, 30, 60, 120, 240, 360, 480 and 1440 minutes post-dose in both IV and PO groups. Hamsters from group 3 were not dosed and were used to collect samples of zero time point and baseline levels of FAP activity and endogenous FGF21.
# Blood aliquots (100-150 μL) were collected from jugular vein catheterized hamsters in tubes coated with EDTA-K2, mixed gently, then kept on ice and centrifuged at 2,500×g for 15 minutes at 4° C., within 1 hour of collection. […]
# Levels of endogenous hamster FGF21 in the plasma samples were quantified by using an ELISA kit (Cat. No. #EZRMFGF21-26K, Millipore) according to the manufacturer's instructions. […] Plasma samples of non-dosed animals were analyzed as a pool of plasma. […]
# [1] = biological target: T1, recombinant human FAP (rhFAP) (Homo sapiens, UniProt Q12884); assay: Inhibition of FAP-mediated digestion of FGF21 in vitro; format: biochemical
# T1 construct: purchased R&D systems 3715-SE-010
# T1 sequence (Q12884 1-760): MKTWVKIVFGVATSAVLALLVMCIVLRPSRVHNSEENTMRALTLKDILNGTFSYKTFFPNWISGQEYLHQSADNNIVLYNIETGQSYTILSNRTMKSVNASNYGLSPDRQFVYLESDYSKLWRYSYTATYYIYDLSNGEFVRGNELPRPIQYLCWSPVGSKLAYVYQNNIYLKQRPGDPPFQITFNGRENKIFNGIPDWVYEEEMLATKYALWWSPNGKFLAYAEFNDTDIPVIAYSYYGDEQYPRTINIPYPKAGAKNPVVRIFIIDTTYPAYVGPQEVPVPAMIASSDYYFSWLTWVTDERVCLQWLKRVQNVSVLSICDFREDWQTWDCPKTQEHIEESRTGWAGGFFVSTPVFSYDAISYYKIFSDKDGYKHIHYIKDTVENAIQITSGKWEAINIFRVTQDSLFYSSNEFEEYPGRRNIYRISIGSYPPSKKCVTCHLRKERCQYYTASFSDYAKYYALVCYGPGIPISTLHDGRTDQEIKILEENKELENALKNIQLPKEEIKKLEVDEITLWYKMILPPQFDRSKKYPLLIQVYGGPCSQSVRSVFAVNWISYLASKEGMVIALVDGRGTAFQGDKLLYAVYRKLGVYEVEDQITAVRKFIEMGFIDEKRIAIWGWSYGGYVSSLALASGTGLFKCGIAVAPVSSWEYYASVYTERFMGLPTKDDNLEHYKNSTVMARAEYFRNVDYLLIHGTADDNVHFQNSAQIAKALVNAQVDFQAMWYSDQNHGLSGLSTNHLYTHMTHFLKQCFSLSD
# Method: Recombinant human FGF21 (rhFGF21; Cat. No. #2539-FG-025/CF, R&D systems) was incubated overnight (16 h) at 37° C. with recombinant human FAP (rhFAP; Cat. No. #3715-SE-010, R&D systems) in digestion buffer (50 mM Tris pH 7.4, 100 mM NaCl, 0.1 mg/ml bovine serum albumin). Reactions were carried out at final concentrations of 1000 ng/mL hFGF21 and 400, 800 or 1200 ng/mL rhFAP in a volume of 100 μL. For SDS-PAGE analysis, after incubation each sample received immediately 4× Laemmli protein sample buffer (Cat. No. #161-0747, Bio-Rad) supplemented with 0.1 ml […]/10 ml aliquot and then boiled at 95° C. during 10 min. An aliquot of 15 μL of each sample were then loaded onto a reducing 20% Tris-Tricine SDS-PAGE gel. For immunoblot analysis, proteins were separated on SDS-PAGE gels and transferred to PVDF membranes (Cat. No. #1620177, Bio-Rad). […] Proteins were detected using the ECL Western Blotting Substrate (Cat. No. #32106, Thermo Fisher Scientific) and visualized using a ChemiDoc™ Imaging System (Biorad) and Image lab software v5.2.1 build 11. […]
# Additionally, the IC50 for FAP-mediated proteolytic cleavage of FGF21, was determined in the using a serial dilution of compound 13 (an exemplary compound).
smiles,measurement,setting,value
"N#C[C@@H]1CC(F)(F)CN1C(=O)CNC(=O)c1ccncc1-c1ccccc1 [Compound 13, (S)—N-(2-(2-cyano-4,4-difluoropyrrolidin-1-yl)-2-oxoethyl)-3-phenylisonicotinamide]",FAP activity in plasma compared with baseline levels,endogenous FAP in plasma,diminished quickly
same,levels of total endogenous FGF21 in plasma,endogenous FAP in plasma; ELISA,increased in the most of hamsters
same,"inhibition of proteolytic processing of rhFGF21 by rhFAP (intact rhFGF21, Western blot)","[1]; 100 and 1000 nM, 16 h at 37° C.",intact form of rhFGF21 is preserved
same,IC50 for FAP-mediated proteolytic cleavage of FGF21,"[1]; serial dilution, densitometry",nanomolar range
